The values below come from patent US20240041884A1, “Pharmaceutical Combinations for Treating Cancer” (Cellestia Biotech AG, priority 2020, published 2024).

Molecules are shown by their SMILES.

The subject of one data set is RPMI-8402 cells. Put plainly: Single agent screening, alamarBlue proliferation assay. The following applies: Homo sapiens, RPMI-8402, 72 hours, read-out: IC50 (μM) values of drugs used as single agent. The data set is classed as cell-based. As to the method: (§1) To determine effect of 6-(4-(tert-butyl)phenoxy)pyridin-3-amine with inhibitors of anti-apoptotic proteins, drugs listed in table 1 were used.
(§2) Cells were treated with each of the listed compounds in table 1 as single agent with a concentration ranging from 10 nM to 10 μM in duplicates. Following treatment for 72 hours, cells were incubated with alamarBlue® for 4 hours and cell proliferation readout was taken using Infinite® F500 (Tecan) plate reader. All volumes (cells and alamarBlue®) were dispensed using Multidrop Combi dispenser using a standard cassette (Speed MEDIUM).
(§3) AlamarBlue® viability assay: alamarBlue® proliferation assays were performed to determine the growth kinetics of compound treated cells. alamarBlue® consists of a cell permeable substrate resazurin. In metabolically active and proliferating cells, resazurin is converted to resorufin due to an intrinsic reducing power of live cells and produces a red fluorescence. Therefore, production of resorufin serves as an indicator of the viability of the cell population. Proliferation assays were performed by seeding 1500 cells/well in 384 well plate format. Cells were treated in duplicates with pre-determined concentration of compounds as a single agent or in combination with 6-(4-(tert-butyl)phenoxy)pyridin-3-amine for 72 hours. To determine growth kinetics, alamarBlue® (Invitrogen) was added to each well and incubated for 4 hours. alamarBlue® readout was taken using Infinite® F500 (Tecan) plate reader.
(§4) Data analysis for individual compounds: To determine anti-proliferative activity and IC50 values of individual compounds (listed in table 1) against HCC1187, MCF-7 and RPMI-8402 cells, data were analyzed using GraphPad Prism.

A further data set relates to MCF-7 cells. Described as above. In kind it is cell-based. The following applies: Homo sapiens, MCF7, MCF-7, 72 hours, read-out: IC50 (μM) values of drugs used as single agent. As to the method:
as §1, §2, §3, §4

In the next data set the test system is HCC1187 cells. Described as above. In kind it is cell-based. The following applies: Homo sapiens, HCC1187, 72 hours, read-out: IC50 (μM) values of drugs used as single agent. As to the method:
as §1, §2, §3, §4

In data set [1] the test system is Primary human T cell acute lymphoblastic leukemia with activated NOTCH pathway. Put plainly: Efficacy in mice bearing primary human T-ALL, survival. In kind it is in vivo. The following applies: NSG mice; 6-(4-(tert-butyl)phenoxy)pyridin-3-amine 40 mg/kg QD5 until termination, Venetoclax 25 mg/kg QD for 7 days. The method, then: Efficacy of 6-(4-(tert-butyl)phenoxy)pyridin-3-amine+Venetoclax combination Primary human T cell acute lymphoblastic leukemia with activated NOTCH pathway were intravenously infused into NSG mice. After 7 days of disease establishment, leukemia-bearing mice were treated as below: • 1. Group 1: Vehicle treatment • 2. Group 2: 6-(4-(tert-butyl)phenoxy)pyridin-3-amine treatment at 40 mg/kg, QD5 until termination of the group • 3. Group 3: Venetoclax treatment at 25 mg/kg, QD for 7 days only • 4. Group 4: Venetoclax at 25 mg/kg , QD for first 7 days+6-(4-(tert-butyl)phenoxy)pyridin-3-amine at 40 mg/kg, QD5 until termination of the group.
Animals were monitored for survival on a daily basis.

The subject of data set [2] is ACC PDX (human adenoid cystic carcinoma patient-derived xenograft). Put plainly: In vivo efficacy in ACC PDX model, tumor growth inhibition. The following applies: ACC PDX in athymic nude mice; for Percentange tumor growth inhibition (TGI): 6-(4-(tert-butyl)phenoxy)pyridin-3-amine 60 mg/kg SC qdx5, Navitoclax 50 mg/kg PO qdx5; for effect on ACC PDX tumor growth: doses of table 5, compared to vehicle. The text has this:
In Vivo Efficacy Evaluation of 6-(4-(tert-butyl)phenoxy)pyridin-3-amine and BCL-2 inhibitor ABT-263 (Navitoclax) in a NOTCH! and BCL-2 Positive Patient-Derived Xenograft (ACC PDX) Model Representing Human Adenoid Cystic Carcinoma in Immune-Deficient Mice
ACC PDX model was implanted into Immuno deficient mice and upon reaching a tumor volume of 150-300 mm^3, animals were randomized for treatment with different agents as indicated below.
Athymic mice transplanted with ACC PDX model were randomized into 4 treatment cohorts. Vehicle treatment • 2. 6-(4-(tert-butyl)phenoxy)pyridin-3 -amine • 3. ABT-263 • 4. 6-(4-(tert-butyl)phenoxy)pyridin-3-amine+ABT-263
Tumor volume was measured every 3-4 days. Mean tumor volume and SEM was calculated and Tumor growth inhibition was calculated using the formula TGI=1−(TXFavg−TXiavg)/(Cfavg−Ciavg), where TX is drug treatment group, favg=average tumor volume at treatment end, iavg=average tumor volume upon treatment initiation, C=Vehile treatment group.

A further data set has as its system blood cells. Put plainly: Safety evaluation in wildtype mice, whole blood analysis. The data set is classed as in vivo. The following applies: 4 consecutive days, day 5 bleed, Venetoclax 12.5, 25, 50 mg/kg, 6-(4-(tert-butyl)phenoxy)pyridin-3-amine 60 mg/kg. The method, then:
Wildtype mice were weighed and dosed for 4 consecutive days as below: • 1. Group 1: Vehicle+Vehicle • 2. Group 2: Vehicle+12.5 mg/kg Venetoclax • 3. Group 3: Vehicle+25 mg/k Venetoclax • 4. Group 4: Vehicle+50 mg/kg Venetoclax • 5. […] On day 5, animals were tail vein bled and whole blood analysis was carried out to determine numbers of different cells.

With `Cc1c(-c2c(-c3ccc(F)o3)sc3ncnc(O[C@H](Cc4ccccc4OCc4ccnn4CC(F)(F)F)C(=O)O)c23)ccc(OCCN2CCN(C)CC2)c1Cl` (atropisomer, axis not shown) [S63845, (2R)-2-[5-[3-chloro-2-methyl-4-[2-(4-methylpiperazin-1-yl)ethoxy]phenyl]-6-(5-fluorofuran-2-yl)thieno[2,3-d]pyrimidin-4-yl]oxy-3-[2-[[2-(2,2,2-trifluoroethyl)pyrazol-3-yl]methoxy]phenyl]propanoic acid], the IC50 with RPMI-8402 cells is 0.04 µM; in the data set with MCF-7 cells, 0.37 µM; with HCC1187 cells, 0.24 µM.

With `CC(C)(C)c1ccc(Oc2ccc(N)cn2)cc1` [6-(4-(tert-butyl)phenoxy)pyridin-3-amine], in data set [1], the “Number of days by which 100% animals died due to leukemia” value is 30 days. Moreover, in data set [2], the “Percentange tumor growth inhibition (TGI)” value came out at 37% and the “effect on ACC PDX tumor growth” value is “induces tumor growth retardation compared to vehicle treated group”.

Turning to `CC1(C)CCC(c2ccc(Cl)cc2)=C(CN2CCN(c3ccc(C(=O)NS(=O)(=O)c4ccc(N[C@H](CCN5CCOCC5)CSc5ccccc5)c(S(=O)(=O)C(F)(F)F)c4)cc3)CC2)C1` [ABT-263 (Navitoclax), 4-[4-[[2-(4-chlorophenyl)-5,5-dimethylcydohexen-1-yl]methyl]piperazin-1-yl]-N-[4-[[(2R)-4-morpholin-4-yl-1-phenylsulfonylbutan-2-yl]amino]-3-(trifluoromethylsulfonyl)phenyl]sulfonylbenzamide], the “Percentange tumor growth inhibition (TGI)” value in data set [2] came out at 57%. Further, the “effect on ACC PDX tumor growth” value in data set [2] is given as “induces tumor growth retardation compared to vehicle treated group”. Further, the figures for the IC50 in the data set on RPMI-8402 cells, with MCF-7 cells and in the data set with HCC1187 cells were 5.5 µM, 21 µM and 20 µM, respectively.

As for `CC1(C)CCC(CN2CCN(c3ccc(C(=O)NS(=O)(=O)c4ccc(NCC5CCOCC5)c([N+](=O)[O-])c4)c(Oc4cnc5[nH]ccc5c4)c3)CC2)=C(c2ccc(Cl)cc2)C1` [Venetoclax, 4-[4-[[2-(4-chlorophenyl)-4,4-dimethylcydohexen-1-yl]methyl]piperazin-1-yl]-N-[3-nitro-4-(oxan-4-ylmethylamino)phenyl]sulfonyl-2-(1H-pyrrolo[2,3-b]pyridin-5-yloxy)benzamide], the “Number of days by which 100% animals died due to leukemia” value in data set [1] was 28 days. In the data set with blood cells, the “effect on blood cells (whole blood analysis)” value was “decrease of white blood cells, lymphocytes, neutrophils, monocytes and mean platelet mass”.
